Experimental findings from US20020155172A1, “Methods and compounds for decreasing cell toxicity or death” (priority 2000, published 2002) are described below.

One assay has as its system RIP, FADD, and Daxx. Nature of the assay: Apoptosis induced by overexpression of adapter proteins. Type of assay: cell-based. As to the method: FIG. 5G is a graph of the effects of Congo red on cell death induced by adapter protein oligomerization (Daxx, RIP, FADD).
(§1) HeLa cells expressing Q79 expanded polyglutamine repeats were treated with 100 μM Congo red, or 100 μM ZVAD (a positive control) for one hour prior to the addition of the apoptosis-inducing agent, and cell death was determined 48 hours later. […] Finally we tested whether Congo red can inhibit apoptosis induced by overexpression of caspase-1, -8, or -11.

The test system of another assay is caspase-1, -8, or -11. The assay is described as follows: Apoptosis induced by overexpression of caspases. Type of assay: cell-based. As to the method: FIG. 5H is a graph of the effects of Congo red on cell death induced by caspase over-expression(caspases-8, -1, or -11).
as §1

Assay [1] has as its system GST-Q19, GST-Q62, and GST-Q81. Nature of the assay: Chemical absorption assay, polyglutamine repeat length. Type of assay: binding. Conditions: 10 μg/ml Congo red in PBS; equal protein concentrations. As to the method:
FIG. 6A is a graph of the percent of binding of Congo red to expanded polyglutamine repeats Q81, Q62, and Q19.
To determine if Congo red and its derivatives directly bind to expanded polyglutamine aggregates, we designed a chemical absorption assay. This assay measures the remaining Congo red in the supernatant after incubating the supernatant with GST-tagged polyglutamine beads, and removing the GST-polyglutamine beads by centrifugation. This assay was carried out as follows. Recombinant protein GST-Q19, GST-Q62, and GST-Q81 (containing 19, 62, and 81 polyglutamines, respectively) was purified from E. coli by glutathione beads. After several washes with PBS containing protease inhibitors, the beads were allowed to settle to the bottom of the tube at 24° C. for 10 minutes. The polyglutamine-bound beads were aliquoted and diluted with two volumes of 10 μg/ml of Congo red in PBS. The beads were mixed and centrifuged at 15,000 rpm for 2 minutes and the supernatant was removed and diluted 1:100. The percentage absorbance of the compound remaining in the supernatant after absorption with the GST-polyQ beads was then detected. In addition, Congo red- or PBS-only treated polyglutamine polypeptide bead pellets were washed three times with 100 volumes of PBS and then the protein was separated by 12% polyacrylamide gels and immunoblotted as mentioned above. […]

In assay [2] the test system is HeLa cells co-transfected with a luciferase construct together with Q79-GFP. Nature of the assay: Protein synthesis by luciferase activity in Q79 expressing HeLa cells. It is filed as cell-based. The conditions noted are these: 48 hours after transfection.
Assay [3] deals with HeLa cells transfected with a Q79-GFP construct. Nature of the assay: Polyglutamine-induced cell death in HeLa cells. Type of assay: cell-based. The procedure:
FIG. 4A is two graphs showing the effect of Congo red, tetracyclines, and sulfated polyanions on polyglutamine-induced cell death in, each graph representing a separate experiment. HeLa cells transfected with a Q79-GFP construct were treated with 100 μM of minocycline (mino), Chrysamine G (CG), Rolitetracycline (Ro), iota carrageenan (iota), dextran 500 (dextran), or Congo red (CR), six hours after transfection. The amount of cell death was determined 48 hours after transfection by morphological criteria as previously described (Sanchez et al., supra).
In a cell expressing Q79-GFP polypeptides, polyglutamine aggregates are formed and the cell dies by apoptosis (Sanchez, supra). Cell viability was determined by morphological criteria characteristic of apoptosis, including cell blebbing, shrinking. Total cell lysates and tissue homogenates were obtained using Buffer A: 1% triton in PBS, containing 10 μg/ml DNAse and protease inhibitors; leupeptin 20 μg/ml, aprotinin 20 u/ml, and PMSF 100 mM. The proteins were separated by 12% SDS/PAGE and transferred to PVDF Immobilon membrane (Millipore, Inc). Antibodies used included rabbit polyclonal antibodies; EM48 (Li et al., Mol. Neurobiol. 20:111-124, 2000) anti-heat shock proteins 40 and 70 (Stressgen, Co.), and rat monoclonal anti-caspase-8 antibody.
These effects were determined by visual inspection of GFP-positive cells under an inverted fluorescence microscope. In addition, the occurrence of apoptosis of these transfected cell samples was confirmed by staining the cells with trypan blue, propidium iodide, or Hoescht 33342 to examine the cellular or nuclear morphology.
Compounds that disrupt other types of aggregates, for example, amyloid fibril aggregates were tested for their ability to disrupt pre-formed polyglutamine aggregates. HeLa Cells were transfected with a Q79-GFP construct. Six hours later, Iota-carrageenan, dextran, minocycline, rolitetracycline, and Chrysamine G (1 nM to 100 μM) were each incubated with the cells. Seventy-two hours post-transfection, the cells were evaluated for the occurrence of cell death, by visual inspection under an inverted fluorescence microscope.

Assay [4] deals with neuroblastoma (SHSY) cells transfected with Q79-GFP. The assay is described as follows: Expanded polyglutamine aggregation and cell death in neuroblastoma (SHSY) cells. The conditions noted are these: Congo red 1.5 to 100 nM. It is filed as cell-based. As to the method: Cells, including neuroblastoma cells, HeLa cells, primary neuronal cells, and primary embryonic neuronal cells were transiently transfected with the plasmid […]-GFP, encoding 79 glutamines followed by the jellyfish green fluorescent protein (Sanchez et al., supra). Expression of […]-GFP was observed 48 or 72 hours after transfection by visual inspection of GFP-positive cells using an inverted fluorescence microscope. In a cell expressing […]-GFP polypeptides, polyglutamine aggregates are formed and the cell dies by apoptosis (Sanchez, supra). Cell viability was determined by morphological criteria characteristic of apoptosis, including cell blebbing, shrinking. Total cell lysates and tissue homogenates were obtained using Buffer A: 1% triton in PBS, containing 10 μg/ml DNAse and protease inhibitors; leupeptin 20 μg/ml, aprotinin 20 u/ml, and PMSF 100 mM. […] These effects were determined by visual inspection of GFP-positive cells under an inverted fluorescence microscope. […] Cells expressing […]-GFP were incubated in cell culture media containing Congo red and evaluated for the effect of Congo red on polyglutamine aggregation and cell death. […] The cells were then scored the presence of visible oligomers by fluorescence microscopy. Cells in which oligomers were not detected at this level of resolution were scored as cells lacking polyglutamine aggregates. […]

For the molecule `Nc1c(/N=N/c2ccc(-c3ccc(/N=N/c4cc(S(=O)(=O)O)c5ccccc5c4N)cc3)cc2)cc(S(=O)(=O)O)c2ccccc12` [Congo red, diphenyldiazo-bis-alpha-napthylaminesulfonate], in the assay on RIP, FADD, and Daxx, the “apoptosis induced by overexpression of RIP, FADD, or Daxx” value is given as “had no effect on apoptosis induced by overexpression of RIP, FADD, or Daxx”. Further, in the assay on caspase-1, -8, or -11, the “apoptosis induced by overexpression of caspase-1, -8, or -11” value is reported as “had no effect on caspase induced cell death”. Besides, the “affinity for polyglutamine repeats Q81 or Q62 compared to Q19” value in assay [1] is “significantly higher affinity for expanded polyglutamine repeats that were 81 or 62 polyglutamines in length”. Further, the “loss of luciferase activity (protein synthesis)” value in assay [2] is listed as “prevented the loss of luciferase activity”. Also, the “cell death, as indicated by morphology” value in assay [3] (HA-tagged Q79-GFP, caspase-8 experiment) is “significantly inhibited ATP loss and cell death”. For the same molecule, in assay [3] (Q79-GFP, compound added six hours after transfection, 1 nM to 100 μM (FIG. 4A: 100 μM), seventy-two hours post-transfection), the “Polyglutamine-induced Cell Death” value is given as “+ (Each + indicates approximately 20% cell death.)”. In assay [4], the cell death entry is reported as “significantly reduced cell death” and the “formation of polyglutamine aggregates” value is recorded as “inhibited the formation of polyglutamine aggregates”.
